The source of these data is US20040253656A1, “Method for measuring inositol triphosphate” (priority 2003, published 2004).

The target of one assay is T1, PLCδ1/PH domain (Homo sapiens, UniProt P51178).
T1 sequence (P51178 21-130 limits assumed): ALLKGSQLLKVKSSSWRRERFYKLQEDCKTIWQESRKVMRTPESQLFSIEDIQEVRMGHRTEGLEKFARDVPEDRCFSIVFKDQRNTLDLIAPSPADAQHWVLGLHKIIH
The settings on record: Lemmon & Ferguson (2001), read-out: affinity for IP3; cited from earlier work.

The subject of a further assay is CHOM1 cells. The experiment in a line: Cellular assay: IP3 levels in CHOM1 cells after carbachol, measured by scintillation proximity assay. Conditions: 20 mM LiCl, Carbachol 0.01 mM to 100 mM, 1 minute, FIG. 3. The format is cell-based. Here is the method:
Standard curves were generated, by displacing labelled IP3, using a range of known concentrations of unlabelled IP3. Reactions were conducted in 96 well Corning NBS microplates in a total volume of […]. The assays were carried out using 10 mMTris/[…] pH 7.0 containing 400 ng of the biotinylated GST-tagged PLC, protein, 10 nCi [^3H] IP3 (spec activity 23.0 Ci/mmol, Amersham), and 1 mg of streptavidin coated PVT beads. Plates were incubated on ice for 2 hours and the plates then read using a Microbeta microplate scintillation counter. Standard curves were also run in the presence of dodecyl trimethyl ammonium bromide (DTAB; lysis reagent 1) and alpha-cyclodextrin (lysis reagent 2) at final concentrations of 0.3% lysis solution 1 and 2% lysis reagent 2 (FIG. 2).
Cells (CHOM1; 2×10^5) were seeded onto a 24 well tissue culture plate and grown overnight at 37° C., 95/5% (air/CO2). Following overnight incubation, media were aspirated and the cells were washed 1× with PBS (phosphate buffered saline). Fresh media were added containing 20 mM LiCl (final concentration of lithium chloride) and the cells were incubated for 30 minutes at 37° C. in a humidified atmosphere (95/5%, air/CO2). […] The plate was incubated on ice for approximately 16 hours and the plate counted using a Microbeta microplate scintillation counter at 1 minute/well.
In general terms: Scintillation proximity formats need no separation of bound from free tracer.

In the case of `O=P(O)(O)O[C@@H]1[C@H](O)[C@H](O)[C@@H](OP(=O)(O)O)[C@H](OP(=O)(O)O)[C@H]1O` [IP3, Inositol 1,4,5-trisphosphate], the Kd at PLCδ1/PH domain is 200 nM. With `C[N+](C)(C)CCOC(N)=O` [carbachol, Carbachol], the “effect on cellular levels of IP3” value in the assay on CHOM1 cells was “stimulatory effect”.
